One series deals with T1, CYP2C8 (Homo sapiens, UniProt P10632).
T1 construct: V5-His (vector-encoded) (C); expressed in transfected cells
T1 sequence (P10632 1-490): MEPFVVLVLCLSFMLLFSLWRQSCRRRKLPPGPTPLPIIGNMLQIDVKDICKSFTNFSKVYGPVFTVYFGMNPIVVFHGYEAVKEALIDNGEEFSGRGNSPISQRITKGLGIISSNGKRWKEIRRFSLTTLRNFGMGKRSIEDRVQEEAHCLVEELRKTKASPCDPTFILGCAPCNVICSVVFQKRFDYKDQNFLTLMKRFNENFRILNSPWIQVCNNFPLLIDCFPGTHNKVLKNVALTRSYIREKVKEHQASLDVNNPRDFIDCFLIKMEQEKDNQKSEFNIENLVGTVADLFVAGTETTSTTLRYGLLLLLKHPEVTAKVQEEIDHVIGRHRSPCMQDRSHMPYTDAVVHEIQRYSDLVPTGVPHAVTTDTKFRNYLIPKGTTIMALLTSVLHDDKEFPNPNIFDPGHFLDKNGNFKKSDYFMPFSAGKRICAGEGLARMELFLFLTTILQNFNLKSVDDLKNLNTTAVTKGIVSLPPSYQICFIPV
The series is described as follows: Metabolism in transgenic HEK293 cells expressing CYP2C8. The class given is in vitro ADME. The settings on record: 20 µM parent PCB, 24 h, supernatant. On the procedure: (§1) For the generation of transgenic cell lines, we used semi-adherent HEK293 cells (DSMZ, ACC305, human embryonic kidney cells) which were cultured on a daily basis in DMEM medium supplemented with 10% (FCS) and 1% penicillin/streptomycin. In a first step CYP1A2, CYP2C8, CYP2C9, CYP3A4, CYP2A6, and CYP2E1 cDNA were cloned into the plasmid pcDNATM3.1/V5-His TOPO® using human liver RNA as a template and using the following primers: CYP1A2 for5′-[…]-3′, CYP1A2 rev 5′-[…]-3′; CYP2C8 for 5′-[…]-3′, CYP2C8 rev 5′-[…]-3′; CYP2C9 for 5′-[…]-3′, CYP2C9 rev 5′-[…]-3′; CYP3A4 for 5′-[…]-3′, CYP3A4 rev 5′-[…]-3′, CYP2A6 for 5′-[…]-3′, CYP2A6 rev 5′-[…]-3′; CYP2E1 for 5′-[…]-3′, CYP2E1 rev 5′-[…]-3′. Final constructs were verified with Sanger DNA sequencing and restriction digestion. For transfection, 3 × 10^6 HEK293 cells were pre-incubated in a 10 cm dish in DMEM medium with 10% FCS, but without antibiotics, for 18 to 24 h. When the cells reached approximately 70% confluency, they were transfected using TransIT-LT1 transfection reagent (Biozol, Eiching, Germany). The TransIT-LT1 reagent was warmed to room temperature and vortexed. 1.63 mL Opti-MEM, 16.25 µL plasmid DNA (1 µg/µL), and 48.75 µL TransIT-LT1 reagent were mixed and incubated for 15 to 30 min. The mixture was then added dropwise to the medium of the cells, and the cells were incubated again at 37 °C and 5% CO2. After 24 h, the medium was replaced with standard medium and geneticin was added for selection (1 mg/mL). Cells were selected for 6–8 weeks in bulk culture, and single cell clones were obtained subsequently by limiting dilution. Each clone was checked for insertion by PCR using genomic DNA as a template.
Parallel samples were run without the addition of PCBs. At a confluence of 80%, PCBs (20 μM each, dissolved in ethanol) were added and cells were incubated for 24 h before harvest of supernatants. Supernatants were diluted 1:2 with 80 μL acetate buffer 0.1 M (pH = 5.3). 100 μL of this dilution were further incubated with 100 μL of ammonium acetate buffer 0.1 M (pH = 5.3) and 5 μL of β-Glucuronidase/Arylsulfatase enzyme overnight in a drying oven at 37 °C for enzymatic hydrolysis to release conjugated compounds. 50 μL of a mix of internal standards (10 ng/mL) and 600 μL of methanol were added to the samples, then mixed by vortexing for 1 min and centrifuged for 10 min at 3400g. The individual supernatants were transferred to glass LC vials and evaporated to approximately 50 μL at 45 °C under a gentle stream of nitrogen. Finally, 0.1 mol/ L ammonium acetate buffer was added to a final volume of 100 μL and then transferred to an insert for analysis. […]

For a further series, the target named is CYP2E1 (Homo sapiens, UniProt P05181). Nature of the series: Metabolism in transgenic HEK293 cells expressing CYP2E1. Conditions: 20 µM parent PCB, 24 h, supernatant. How it is done: as §1
CYP2E1, sequence (P05181 whole entry): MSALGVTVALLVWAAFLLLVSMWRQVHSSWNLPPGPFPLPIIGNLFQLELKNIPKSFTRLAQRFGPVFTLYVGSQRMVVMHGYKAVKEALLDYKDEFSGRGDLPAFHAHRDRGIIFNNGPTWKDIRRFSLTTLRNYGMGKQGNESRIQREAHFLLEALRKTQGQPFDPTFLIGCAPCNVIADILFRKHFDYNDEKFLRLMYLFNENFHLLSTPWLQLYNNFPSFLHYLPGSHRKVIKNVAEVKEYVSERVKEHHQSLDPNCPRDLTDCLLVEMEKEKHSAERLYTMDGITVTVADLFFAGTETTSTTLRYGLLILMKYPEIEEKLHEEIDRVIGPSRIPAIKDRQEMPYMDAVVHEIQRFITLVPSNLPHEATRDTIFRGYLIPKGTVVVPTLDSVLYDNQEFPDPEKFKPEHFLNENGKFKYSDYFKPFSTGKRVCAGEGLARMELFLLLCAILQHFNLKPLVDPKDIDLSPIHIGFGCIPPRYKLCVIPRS
(§2) Parallel samples were run without the addition of PCBs. At a confluence of 80%, PCBs (20 μM each, dissolved in ethanol) were added and cells were incubated for 24 h before harvest of supernatants. Supernatants were diluted 1:2 with 80 μL acetate buffer 0.1 M (pH = 5.3). 100 μL of this dilution were further incubated with 100 μL of ammonium acetate buffer 0.1 M (pH = 5.3) and 5 μL of β-Glucuronidase/Arylsulfatase enzyme overnight in a drying oven at 37 °C for enzymatic hydrolysis to release conjugated compounds. 50 μL of a mix of internal standards (10 ng/mL) and 600 μL of methanol were added to the samples, then mixed by vortexing for 1 min and centrifuged for 10 min at 3400g. The individual supernatants were transferred to glass LC vials and evaporated to approximately 50 μL at 45 °C under a gentle stream of nitrogen. Finally, 0.1 mol/ L ammonium acetate buffer was added to a final volume of 100 μL and then transferred to an insert for analysis.
(§3) HEK293 cells overexpressing the respective CYP enzymes were seeded onto 6-well plates and were treated with or without 10 µM of the respective probe drug in DMEM medium for 24 hours at 37 °C and 5 % CO2. After incubation 200 µL DMEM were collected, cells were washed with PBS and adherent cells were lysed in 500 µL methanol for 20 minutes. Analytes were measured by LC-MS/MS either in methanol cell lysates or in DMEM supernatant.
(§4) 50 µL of DMEM samples were protein precipitated by adding 200 µL of methanol and were centrifuged for 20 min, 17,000 g and 4°C. Supernatants were diluted in water or 40 % methanol according to dilution factor. Methanol cell lysates were diluted ½ with water and centrifuged for 20 min, 17,000 g and 4°C. 5 µL of the processed samples were injected for LC-MS analysis.

Another series addresses CYP3A4 (Homo sapiens, UniProt P08684). Nature of the series: Metabolism in transgenic HEK293 cells expressing CYP3A4. The settings on record: 20 µM parent PCB, 24 h, supernatant. On the procedure: as §1, §2, §3, §4
A further series concerns the target T2, CYP2A6 (Homo sapiens, UniProt P11509).
T2 sequence (P11509 1-494): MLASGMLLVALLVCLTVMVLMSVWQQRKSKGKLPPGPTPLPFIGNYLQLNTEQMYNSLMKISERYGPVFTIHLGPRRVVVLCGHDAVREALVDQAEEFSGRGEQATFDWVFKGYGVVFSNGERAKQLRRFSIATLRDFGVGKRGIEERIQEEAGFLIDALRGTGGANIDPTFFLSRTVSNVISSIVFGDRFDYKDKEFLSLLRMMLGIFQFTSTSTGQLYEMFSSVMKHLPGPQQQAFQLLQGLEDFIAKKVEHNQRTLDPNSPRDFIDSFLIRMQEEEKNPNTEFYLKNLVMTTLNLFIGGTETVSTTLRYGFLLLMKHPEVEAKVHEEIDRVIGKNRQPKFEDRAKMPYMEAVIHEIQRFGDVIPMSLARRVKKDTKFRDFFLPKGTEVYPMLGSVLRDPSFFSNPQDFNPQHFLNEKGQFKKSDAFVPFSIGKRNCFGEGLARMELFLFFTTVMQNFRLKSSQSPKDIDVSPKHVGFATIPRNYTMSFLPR
The series is described as follows: Metabolism in transgenic HEK293 cells expressing CYP2A6. Conditions: 20 µM parent PCB, 24 h; for Quantification of metabolites generated from PCB28, 52, and 101: supernatant; for Metabolite concentration formed, range across cell clones: HEK293CYP2A6 cell lines. The class given is in vitro ADME. Also on record: V5-His (vector-encoded) (C); expressed in transfected cells. On the procedure: as §1, §2, §3, §4

A further series deals with HEK293CYP2A6 cells. The series is described as follows: Micronucleus assay in HEK293CYP2A6 cells. The class given is cell-based, human. The settings on record: positive control, 10 µm, 24 h. How it is done: Transgenic HEK293CYP2A6 and HEK293CYP2C9 cells were cultured in T25 flasks, with a seeding density of 1 × 10^6 cells per flask at 37 °C with 5% CO2. Cells were allowed to grow for 24 h geneticin free before PCBs were added (20 µM or 30 µM). Controls included cells grown in the presence of 1% ethanol (vol/vol) (negative control) or […] 4-nitroquinoline 1-oxide (positive control). Following further incubation for 24 h, cells were synchronized by adding Cytochalasin B. Subsequently, cells were harvested by trypsinization, centrifuged (2,000g, 10 min), and washed with DPBS (Dulbecco’s PBS). For hypotonic shock, 4 °C cold potassium chloride solution was added to the cells under agitation. Cells were completely resuspended and incubated at room temperature for 5 min. After centrifugation (2,500g, 10 min), the supernatant was discarded. To fix the cells, they were treated with a methanol/acetic acid solution (− 20 °C), with a minimum incubation time of 15 min at room temperature. Following centrifugation (2,500g, 10 min), the supernatant was discarded, and the fixation process was repeated at least three times. Finally, the samples were dissolved in 1 mL of fixative solution and incubated overnight at 4 °C. For analysis, two to three drops from each sample were placed on a glass slide, with intermittent heating of the slide. Subsequently, the cells were visualized with acridine orange, and using a fluorescence microscope (Leica DM6000B, Filter I3 450–490 nm), 2,000 cells per sample were counted.

The target in another series is T3, CYP1A2 (Homo sapiens, UniProt P05177).
T3 sequence (P05177 1-516): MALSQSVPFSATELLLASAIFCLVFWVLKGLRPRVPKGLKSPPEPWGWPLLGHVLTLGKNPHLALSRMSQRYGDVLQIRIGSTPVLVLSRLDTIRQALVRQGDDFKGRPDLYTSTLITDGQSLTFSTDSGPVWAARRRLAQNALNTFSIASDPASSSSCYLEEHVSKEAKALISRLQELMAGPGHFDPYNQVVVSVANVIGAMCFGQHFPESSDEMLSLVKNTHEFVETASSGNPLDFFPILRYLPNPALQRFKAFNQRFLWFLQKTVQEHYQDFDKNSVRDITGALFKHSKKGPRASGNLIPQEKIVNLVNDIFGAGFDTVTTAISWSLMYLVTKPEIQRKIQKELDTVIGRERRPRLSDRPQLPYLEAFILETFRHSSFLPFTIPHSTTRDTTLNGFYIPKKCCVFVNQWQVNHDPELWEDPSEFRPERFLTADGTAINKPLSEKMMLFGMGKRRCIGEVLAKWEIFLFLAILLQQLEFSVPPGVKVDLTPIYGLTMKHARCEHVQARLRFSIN
Nature of the series: Metabolism in transgenic HEK293 cells expressing CYP1A2 (LC-MS/MS of supernatant). On the procedure: as §1, §2, §3, §4

“And” between values parts separate entries of the source, which are not always exact repeats. Equal entries are not always repeated.

CYP3A4, sequence (P08684 whole entry): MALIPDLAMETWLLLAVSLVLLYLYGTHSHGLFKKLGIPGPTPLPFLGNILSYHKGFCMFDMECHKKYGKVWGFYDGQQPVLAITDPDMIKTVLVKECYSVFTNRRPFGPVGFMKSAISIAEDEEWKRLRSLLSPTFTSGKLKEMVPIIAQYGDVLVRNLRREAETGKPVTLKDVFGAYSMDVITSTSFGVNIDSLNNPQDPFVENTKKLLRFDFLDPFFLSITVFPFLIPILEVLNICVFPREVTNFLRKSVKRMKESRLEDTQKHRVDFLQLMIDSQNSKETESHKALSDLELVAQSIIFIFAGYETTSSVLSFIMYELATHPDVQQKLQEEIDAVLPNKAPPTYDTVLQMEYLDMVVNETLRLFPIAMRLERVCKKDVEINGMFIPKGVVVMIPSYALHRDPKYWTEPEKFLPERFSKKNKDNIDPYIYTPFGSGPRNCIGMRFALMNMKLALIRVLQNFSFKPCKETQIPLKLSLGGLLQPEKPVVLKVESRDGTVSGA

On to `Oc1cc(Cl)cc(-c2cc(Cl)ccc2Cl)c1Cl` [3-OHCB52, 2,2′,5,5′-tetrachloro-3-biphenylol], for which the “Quantification of metabolites generated from PCB28, 52, and 101” value (from here on “Quantification of metabolites generated”) is given as “<LOQ” at CYP2C8 (CYP2C8 Clone A3); 0,09 nM at CYP2C8 (CYP2C8 Clone D8); “<LOQ” at CYP2C8 (CYP2C8 Clone D9); 0,38 nM on CYP2E1 (CYP2E1 Clone B4); 0,59 nM at CYP2E1 (CYP2E1 Clone B5); 0,74 nM at CYP2E1 (CYP2E1 Clone E6). The “Quantification of metabolites generated” value at CYP3A4 (CYP3A4 Clone B4) was 0,21 nM; at CYP3A4 (CYP3A4 Clone D10), 0,66 nM; at CYP3A4 (CYP3A4 Clone E6), 0,45 nM; on CYP2A6 (CYP2A6 Clone B7), 0,87 nM; at CYP2A6 (CYP2A6 Clone C4), 0,75 nM. Further, the “Metabolite concentration formed, range across cell clones” value (shortened to “Metabolite concentration formed”) at CYP2A6 was 0.23–0.27 µg/L and 0.74–0.87 nM.

In the case of `Oc1cc(Cl)c(-c2cc(Cl)ccc2Cl)cc1Cl` [4-OHCB52, 2,2′,5,5′-tetrachloro-4-biphenylol], the “Quantification of metabolites generated” value on CYP2C8 (CYP2C8 Clone A3) is recorded as “<LOQ”; at CYP2C8 (CYP2C8 Clone D8) it was 0,1 nM; at CYP2C8 (CYP2C8 Clone D9), “<LOQ”; on CYP2E1 (CYP2E1 Clone B4) it was 5,55 nM; on CYP2E1 (CYP2E1 Clone B5), 8,9 nM; at CYP2E1 (CYP2E1 Clone E6), 10,23 nM. In addition, the “Quantification of metabolites generated” value at CYP3A4 (CYP3A4 Clone B4) was 0,23 nM; on CYP3A4 (CYP3A4 Clone D10) it was 0,72 nM; at CYP3A4 (CYP3A4 Clone E6) it was 0,54 nM; on CYP2A6 (CYP2A6 Clone B7), 319,55 nM; on CYP2A6 (CYP2A6 Clone C4), 1029,16 nM; at CYP2A6 (CYP2A6 Clone C5), 30,78 nM. Moreover, the “Metabolite concentration formed” value on CYP2A6 was 9.48 to 316.89 µg/L.

As to `O=[N+]([O-])c1cc[n+]([O-])c2ccccc12` [4-nitroquinoline-(1)-oxide, reference compound], in the series with HEK293CYP2A6 cells, the “Micronucleus formation compared to the negative control ethanol” value was “consistent and significant elevation”.

Take `Oc1ccc(-c2ccc(Cl)cc2)c(Cl)c1Cl` [4′-OHCB25, 2′,3′,4-trichloro-4′-biphenylol]: the “Metabolite concentration formed” value at CYP1A2 (HEK293CYP1A2 cell clones, 20 µM PCB28, 24 h) is 0.15–0.23 µg/L and 0.56–0.84 nM.

With `Cn1c(=O)c2c(ncn2C)n(C)c1=O` [Caffeine, reference compound], the Conversion product result at CYP1A2 (HEK293CYP1A2, 10 µM substrate, 24 h) is reported as “Paraxanthine”.

The record behind these values is article PMC11489226 (Archives of Toxicology, 2024).
